In US10087156B2, “Methods and compositions related to retinoid receptor-selective pathway” (Sanford Burnham Prebys Medical Discovery Institute, priority 2010, dated 2018):
“Also recorded” adds a separate entry of the source.

Legend:
[1] = biological target: T1, RXRα ligand-binding domain (LBD) (Homo sapiens, UniProt P19793); test: Competitive ligand-binding assay with [3H]9-cis-RA
T1 construct: made in house
Experimental: Competitive ligand-binding assays (FIG. 1A) and HPLC analysis of Sulindac binding to RXRα, Nur77, or RARβ in HEK293T cells (FIG. 1B) were performed. RXRα LBD protein was incubated with [^3H]9-cis-RA in the presence or absence of Sulindac or unlabeled 9-cis-RA. Bound [^3H]9-cis-RA was quantitated by liquid scintillation counting (FIG. 1A). HEK293T cells stably expressing RXRαfused to a C-terminal TAP tag (Stratagene, La Jolla, Calif.) were treated with or without 100 μM sulindac sulfide for 3 hr. After treatment, cells were purified and analyzed by HPLC for the presence of sulindac sulfide. A standard solution of sulindac sulfide was used to obtain the calibration curve. Characteristic peak spectrum and retention time was used for identification, and peak areas at max used for quantification were calculated (FIGS. 1B and 10). Sulindac sulfide bound to RXRα with an IC50 of 80 μM (FIG. 1A), which is in the concentration range that induces apoptosis.
Bacterially expressed His-tagged RXRα ligand-binding domain (LBD) (aa 223-462) was incubated with [^3H]-9-cis-RA (Amersham Biosciences, Amersham, UK) in ligand binding assay buffer in the presence or absence of various concentrations of unlabeled 9-cis-RA or sulindac sulfide. […] Bound radiolabeled 9-cis-RA was determined in a scintillation counter as described (Kolluri, S. K. et al., Proc Natl Acad Sci USA 102 (7), 2525-2530 (2005)).

AKT = test: TNFα-induced AKT activation by immunoblotting; type: cell-based
Experimental: MEF and MCF-7 cells were starved overnight, pretreated with Sulindac for 1 hr, and stimulated with EGF (100 ng/ml) for 15 min. AKT activation was analyzed by immunoblotting (FIG. 12A). MEF and Caco-2 cells were starved overnight and pretreated with Sulindac for 30 min before exposure to all-trans-retinoic acid (ATRA) (10^−7 M) for 30 min and analyzed for AKT activation (FIG. 12B). AKT activation in ZR-75-1 breast cancer cells transfected with RXRα siRNA for 48 hr before exposure to 9-cis-RA (10^−7 M) for 30 min was also analyzed by immunoblotting (FIG. 12C). A549 lung cancer cells transfected with RXRα or control siRNA (FIG. 3C) and ZR-75-1 and PC3 cells (FIG. 3D) were pretreated with Sulindac (100 μM) for 1 hr before exposure to TNFα (10 ng/ml) for 30 min and analyzed for AKT activation and RXRα expression by immunoblotting.
For immunoblotting, cell lysates were boiled in SDS sample buffer, resolved by SDS-polyacrylamide gel electrophoresis, and transferred to nitrocellulose. After transfer, the membranes were blocked in 5% milk in TBST (10 mM Tris-HCl, pH. 8.0, 150 mM NaCl, 0.05% Tween 20) containing antibody. The membranes were then washed three times with TBST, then incubated for 1 hr at room temperature in 5% milk in TBST containing horseradish peroxide-linked anti-immunoglobulin.

[2] = system: HeLa/RXRα/1-134 stable clone; test: Colony formation (clonogenic survival) assay; type: cell-based; conditions: HeLa/RXRα/1-134 stable clone (also RXRα/Δ80 stable clones)
Experimental: HeLa RXR/α1-134 stable clone and control HeLa cells were seeded in 6-well plate, 350 cells/well. Five days later, cells were treated with Sulindac (50 μM) and K-80003 (25 μM) in 0.5% serum medium for 3 days. After washed with PBS, cells were fixed with 4% paraformaldehyde in PBS for 20 min. Colonies were stained with 0.1% crystal violet for 30 min, and pictures were taken and colonies were counted.

HepG2 liver cancer cells = test: PARP cleavage and caspase-8 activation with TNFα by immunoblotting; type: cell-based; conditions: HepG2 (K-80003: HepG2 and PC3) cells, TNFα 10 ng/ml
Experimental: ZR-75-1 cells were treated with TNFα and/or Sulindac (75 μM) or K-80003 (50 μM) for 6 hr and analyzed by immunoblotting.
HepG2 cells cultured in medium with 1% FBS were treated with SR11237 (1 μM) for 1 hr, then TNFα (10 ng/ml) and/or Sulindac (75 μM) for 4 hr, and analyzed by immunoblotting. HepG2 cells transfected with control or RXRα siRNA were treated with TNFα and/or Sulindac and analyzed by immunoblotting.

[3] = biological target: T2, RXRα homodimer and heterodimer (Homo sapiens, UniProt P19793); test: (TREpal)2-tk-CAT and βRARE-tk-CAT reporter assays in CV-1 cells; type: cell-based; conditions: SR11237 10^−6 M
T2 construct: expressed in transfected cells; host or cells: CV-1 green monkey kidney cells
Experimental: Nur77 and/or RXRα were transiently transfected into CV-1 cells. Cells were treated with or without SR11237 (10^−6 M), a RXR-selective agonist, in the presence or absence of Sulindac. (TREpal)2-tk-CAT (Zhang et al., Nature 358, 587-591 (1992a)) (FIG. 1E) and βRARE-tk-CAT (Zhang et al., Nature 355, 441-446 (1992b)) (FIG. 1F) CAT activity were determined.
Cells (1×10^5 cells/well) seeded in 24-well plates were transiently transfected using a modified calcium phosphate precipitation procedure as described (Kolluri, S. K. et al., Proc Natl Acad Sci USA 102 (7), 2525-2530 (2005); Cao, X., et al., Mol Cell Biol 24(22), 9705-9725 (2004)).

T1 sequence (P19793 223-462): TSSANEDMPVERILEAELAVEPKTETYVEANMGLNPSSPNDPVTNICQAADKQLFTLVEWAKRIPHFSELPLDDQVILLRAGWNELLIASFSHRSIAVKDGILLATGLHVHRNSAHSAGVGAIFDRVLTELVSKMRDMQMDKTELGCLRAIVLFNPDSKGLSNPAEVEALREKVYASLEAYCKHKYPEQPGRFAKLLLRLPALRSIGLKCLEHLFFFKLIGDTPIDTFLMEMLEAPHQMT
T2 sequence (P19793 whole entry, one chain of several): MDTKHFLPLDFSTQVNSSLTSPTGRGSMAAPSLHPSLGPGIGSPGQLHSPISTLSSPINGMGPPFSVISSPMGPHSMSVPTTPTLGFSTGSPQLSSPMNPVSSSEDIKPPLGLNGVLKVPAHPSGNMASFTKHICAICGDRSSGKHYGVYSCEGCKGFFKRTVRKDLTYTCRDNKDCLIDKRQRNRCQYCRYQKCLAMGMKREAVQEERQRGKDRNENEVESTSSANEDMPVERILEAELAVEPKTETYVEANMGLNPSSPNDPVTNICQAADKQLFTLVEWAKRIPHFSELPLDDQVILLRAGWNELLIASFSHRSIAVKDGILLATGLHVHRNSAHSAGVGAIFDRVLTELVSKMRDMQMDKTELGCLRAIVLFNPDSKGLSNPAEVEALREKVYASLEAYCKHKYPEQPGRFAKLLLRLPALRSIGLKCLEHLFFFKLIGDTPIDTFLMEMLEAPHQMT

Row | RXRα-binding activity, fold higher than Sulindac ([1]; competition ligand-binding assay) | Compound | inhibition of TNFα-induced AKT activation, compared with Sulindac (AKT; 50 μM each) | inhibition of colony formation [2] | PARP cleavage and caspase-8 activation, combination with TNFα (HepG2 liver cancer cells) | IC50 ([1]; competition with [3H]9-cis-RA on RXRα LBD protein) [µM] | RXRα homodimer and heterodimer transactivation (CAT activity) [3] | inhibition of TNFα-induced AKT activation (AKT; A549 lung cancer cells, 100 μM, TNFα 10 ng/ml) | inhibition of AKT activation, Sulindac alone (AKT; ZR-75-1 and PC3 cells (high basal AKT activation)) | inhibition of AKT activation, combination with TNFα (AKT; ZR-75-1 and PC3 cells, 100 μM, TNFα 10 ng/ml)
1 | about 34 fold | CC1=C(CC(=O)O)c2cc(F)ccc2/C1=C\c1ccc(C(C)C)cc1 [K-80003, (Z)-2-(3-(4-Iso-propylbenzylidene)-6-fluoro-2-methyl-3H-inden-1-yl)acetic acid] | much more effective than Sulindac | much more effective than Sulindac; also recorded: almost completely suppressed | synergistically induced PARP cleavage and caspase-8 activation |  |  |  |  | 
2 |  | CSc1ccc(/C=C2/C(C)=C(CC(=O)O)c3cc(F)ccc32)cc1 [Sulindac, (Z)-2-(3-(4-(Methylthio)benzylidene)-6-fluoro-2-methyl-3H-inden-1-yl)acetic acid] |  | strongly inhibited | effectively induced PARP cleavage and caspase-8 activation | 80 | inhibited RXRα homodimer and heterodimer transactivation | potently inhibited | little inhibitory effect | almost completely
